Consider one molecule from US20200222418A1, “USE OF PHENOTHIAZINE DERIVATIVE IN THE TREATMENT OF INFECTION CAUSED BY BACTERIA CARRYING TYPE IV PILI” (priority 2017, published 2020).

Assay [1] relates to N. meningitidis 2C4.3 isogenic derivative mutant PilT. The assay is described as follows: Aggregation of PilT mutant in suspension (phase-contrast video microscopy). In kind it is cell-based, Neisseria meningitidis. The settings on record: 50 μM. The method, then: N. meningitidis 2C4.3 wild type strain and the isogenic derivative mutant PilT ([…]PiIT) were grown in liquid culture at 10^7 CFU/ml for 2 h to form bacterial aggregates and then treated with 50 μM Trifluoperazine. Time lapse phase-contrast video microscopy was performed to visualize the effect on bacterial aggregates over time. Images were taken at the indicated time points of the video.
(§1) N. meninigitidis 2C4.3 strain and the isogenic derivative mutant PilT, where the pilT gene was interrupted by an erythromycin-resistance cassette (Pujol et al., 1999), were grown in suspension in DMEM medium supplemented with 10% heat-inactivated fetal calf serum. PilT belongs to a highly conserved protein family homologous to AAA-type motor proteins and is proposed to cause the retraction of type IV pili by disassembling the pilin subunits at the base of the fiber (Morand et al., 2004). After 2 h of growth, Trifluoperazine (or control vehicle) was added at 50 μM for 20 min. The effect on bacterial aggregates were visualized over time using a phase-contrast microscope or the bacterial suspensions were fixed in 4% Paraformaldehyde for 10 min, centrifuged at 1000 rpm for 5 minutes and the bacterial pellets washed in PBS. After negative staining with 1% phosphotungstic acid, bacteria were analysed by transmission electron microscopy, using a JEOL 1011 microscope.

Assay [2] has as its system N. meningitidis 2C4.3 wild type strain type IV pili. The assay is described as follows: Surface expression of type IV pili by transmission electron microscopy, wild type. The class given is cell-based, Neisseria meningitidis. The settings on record: 50 μM Trifluoperazine for 30 minutes, wild type 2C4.3. The method, then:
N. meningitidis 2C4.3 wild type strain and the isogenic derivative mutant PilT ([…]PiIT) were grown in liquid culture […] electron microscopy. Arrows point at bundles of type IV pili expressed at the bacterial surface.
as §1, with “After 2 h of growth, Trifluoperazine (or control vehicle) was added at 50 μM for 20 min.” left out

Assay [3] concerns N. meningitidis 2C4.3 PilT mutant type IV pili. The assay is described as follows: Surface expression of type IV pili by transmission electron microscopy, PilT mutant. The class given is cell-based, Neisseria meningitidis. The conditions noted are these: 50 μM. The method, then: N. meningitidis 2C4.3 wild type strain and the isogenic derivative mutant PilT ([…]PiIT) were grown in liquid culture at 10^7 CFU/ml for 2 h to form bacterial aggregates and then treated with 50 μM Trifluoperazine for 15 minutes before analysis by transmission electron microscopy. Arrows point at bundles of type IV pili expressed at the bacterial surface.
as §1

For assay [4], the system named is Nm2C4.3 adhesion to human dermal microvascular endothelial cells (HDMECs). The assay can be described thus: Adhesion of pretreated meningococci to endothelial cells. In kind it is cell-based, Neisseria meningitidis. The settings on record: bacteria pre-treated with 30 μM for 30 minutes. The method, then:
Nm2C4.3 grown in suspension were pretreated in the absence or in the presence of 30 μM Trifluoperazine for 30 minutes before adhesion to human dermal microvascular endothelial cells (HDMECs) for 30 minutes. Infection was allowed to proceed for further 30, 60 or 90 minutes before fixation and immunostaining using anti-Nm2C4.3 antibody and Alexa Fluor 633 Phalloidin. (A) Representative fluorescence microscopy showing bacterial colony (white dots) formed at the surface of the endothelial cells. (B) Quantification of the bacterial colonization was performed using Image J software.

Assay [5] concerns HBMECs infected with meningococci. The assay is described as follows: PECAM-1 recruitment at bacterial adhesion sites in infected HBMEC. In kind it is cell-based, human. The conditions noted are these: 5 μM for 2 h during infection. The method, then:
(A) Monolayers of HBMECs were non-infected or infected for 2 h with meningococci and the effect on the localisation of the endothelial cell junction proteins PECAM-1 and […]-catenin was analysed by immunofluorescence analysis. Arrows point at PECAM-1 molecules recruited at bacterial adhesion sites (B) HBMECs were infected for 2 h with meningococci in the presence or in the absence of 5 μM Trifluoperazine and the effect on junctional PECAM-1 and on the endothelial cell cytoskeleton remodelling (Ezrin, Actin) was analysed by immunofluorescence analysis. (C) Quantification of Actin and PECAM-1 recruitment at sites of bacterial adhesion was performed using Image J software.
When indicated, HBMECs were grown on Thermanox coverslips coated with gelatin 2% for 2 days to reach confluency. Cells were then infected as above described in the presence or in the absence of 5 μM Trifluoperazine for 2 h. Cells were washed and fixed in 4% paraformaldehyde and immunolabelling was performed with a polyclonal antisera raised anti-Nm2C4.3 strain, anti-human PECAM-1 mouse monoclonal, clone HEC7 (ABCAM ab119339) or rabbit polyclonal 177 raised against PECAM-1, obtained from WA Muller (Northwestern University, Chicago, Ill., US), anti-0 catenin (05-482, UBI), polyclonal antisera raised against Ezrin, Alexa Fluor 633 Phalloidin. […] Quantifications were done using ImageJ software (NIH).

The subject of assay [6] is Enteropathogenic Escherichia coli (EPEC ΔescN-GFP) microcolonies on HBMEC. The assay can be described thus: Dispersion of EPEC microcolonies on HBMEC. The class given is cell-based. The conditions noted are these: 10 to 50 μM, 30 min. The method, then:
Human […] microvascular endothelial cells (HBMEC) were infected with a GFP-expressing mutant Enteropathogenic Escherichia coli, which lacks the ATPase escN (EPEC ΔescN-GFP) for 2 h, then treated with Trifluoperazine (10-50 μM) for 30 minutes, before fixation and immunofluorescence analysis using Alexa Fluor 633 Phalloidin. (A) Representative fluorescence microscopy showing bacterial colony (white dots) formed at the surface of the endothelial cells. (B) Quantification of the bacterial colonization was performed using Image J software.
HBMEC were grown on Thermanox coverslips coated with gelatin 2% for 2 days to reach confluency. Cells were then infected for 1 h with a GFP-expressing mutant Enteropathogenic Escherichia coli (EPEC), which lacks the ATPase escN. This strain is unable to translocate effector proteins and is more prone to form pilus-dependent microcolony at the host cell surface (Jensen et al., 2015). Cells were then washed three times with medium to remove non-adherent bacteria and infection was pursued for 1 extra hour, to allow bacterial growth at the endothelial cell surface to form microcolonies. Trifluoperazine was then added to obtain final concentrations of 10, 20, 30 and 50 μM. After incubation for 30 minutes, cells were washed and fixed in 4% Paraformaldehyde for 10 min, washed three times with PBS. […] Quantification was done with ImageJ software (NIH). […]

Molecules are shown by their SMILES.

Turning to `CN1CCN(CCCN2c3ccccc3Sc3ccc(C(F)(F)F)cc32)CC1` [Trifluoperazine], in assay [1], the “effect on aggregation of PilT mutant strain” value was “had no effect”. Also, the “type IV pili expressed on bacterial surface” value in assay [2] is given as “no longer observed”. Further, the “surface expression of type IV pili of PilT mutant” value in assay [3] is listed as “did not affect”. Also, in assay [4], the “adhesion to and colony formation at the endothelial cell surface” value is recorded as “did no longer adhere to and/or form bacterial colony”. In assay [5], the “PECAM-1 recruitment at bacterial adhesion sites” value is “prevented PECAM-1 recruitment” and the bacterial colonization result is “did not affect bacterial colonization”. In assay [6], the “dispersion of EPEC microcolonies at the endothelial cell surface” value was “induced the dispersion of these microbial colonies in a dose-dependent manner”.
